41 compounds from patent US12011444B2, “N-substituted indole derivatives as PGE2 receptor modulators” (Idorsia Pharmaceuticals Ltd, priority 2015, dated 2024) can be followed below.

One experiment has as its target EP2 (Homo sapiens (Human), UniProt P43116).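 Also: antagonism of PGE2-stimulated cAMP accumulation in SF295 human glioblastoma cells with endogenous EP2, cAMP read by HTRF, expressed relative to DMSO control.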
A further experiment deals with EP4 (Homo sapiens (Human), UniProt P35408). The experiment in a line: hEP4 cAMP assay (BT549 breast cancer cells, HTRF cAMP). The class given is cell-based. As to the method: Plate is pre-incubated 45 minutes at room temperature. Subsequently, 2.5 microliters of PGE2 (final conc. 6 nM) are transferred into the assay plate. Plate is incubated 30 minutes at room temperature.
Chain of EP4 (P35408 whole entry): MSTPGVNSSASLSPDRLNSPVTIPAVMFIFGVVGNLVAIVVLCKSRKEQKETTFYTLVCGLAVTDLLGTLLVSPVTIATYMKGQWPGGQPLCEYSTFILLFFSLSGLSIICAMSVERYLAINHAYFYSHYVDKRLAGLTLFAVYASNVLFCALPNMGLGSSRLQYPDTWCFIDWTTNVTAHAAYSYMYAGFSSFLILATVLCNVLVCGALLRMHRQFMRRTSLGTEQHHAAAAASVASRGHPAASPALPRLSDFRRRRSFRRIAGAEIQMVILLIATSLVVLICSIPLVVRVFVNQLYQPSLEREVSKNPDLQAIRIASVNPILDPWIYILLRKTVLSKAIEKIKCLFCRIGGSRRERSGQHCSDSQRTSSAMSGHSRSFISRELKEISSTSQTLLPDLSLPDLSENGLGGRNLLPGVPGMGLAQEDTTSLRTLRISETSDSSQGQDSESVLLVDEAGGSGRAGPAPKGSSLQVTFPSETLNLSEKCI

The mark [1] stands for this setting: antagonistic activity, mean values where measured multiple times.

Chain of EP2 (P43116 whole entry): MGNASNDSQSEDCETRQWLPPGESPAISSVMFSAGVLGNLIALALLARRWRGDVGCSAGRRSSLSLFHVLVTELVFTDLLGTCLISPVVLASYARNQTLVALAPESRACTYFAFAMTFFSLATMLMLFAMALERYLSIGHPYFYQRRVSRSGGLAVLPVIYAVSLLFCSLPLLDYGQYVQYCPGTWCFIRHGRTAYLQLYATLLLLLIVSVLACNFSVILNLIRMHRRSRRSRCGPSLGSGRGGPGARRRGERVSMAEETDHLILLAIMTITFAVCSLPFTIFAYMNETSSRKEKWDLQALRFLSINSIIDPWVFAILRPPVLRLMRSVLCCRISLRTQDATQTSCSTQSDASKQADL

Regarding `CCCN1Cc2cc(-c3cc(NCCn4c(C)cc5c(OC)ccc(F)c54)ncn3)ccc2C1=O` [compound 466, 5-{6-[2-(7-Fluoro-4-methoxy-2-methyl-indol-1-yl)-ethylamino]-pyrimidin-4-yl}-2-propyl-2,3-dihydro-isoindol-1-one], the IC50 amounted to 33 nM at EP2 and 229 nM at EP4 (setting [1]).

For the compound `COc1c(F)cc(Cl)c2c1cc(C)n2CCNc1cc(-c2ccc3[nH][nH]c(=O)c3c2)ncn1` [Example 783, 5-{6-[2-(7-Chloro-5-fluoro-4-methoxy-2-methyl-indol-1-yl)-ethylamino]-pyrimidin-4-yl}-1,2-dihydro-indazol-3-one], the values for the IC50 on EP2 and at EP4 (setting [1]) were 271 nM and 912 nM, respectively.

With `CCOc1cc(-c2cc(NCCn3c(C)cc4c(OC)cccc43)ncn2)ccc1-c1nnn[nH]1` [compound 664], the IC50 on EP2 was 4 nM; against EP4 (setting [1]) it was 95 nM.

As to `CCOc1cc(-c2cc(NCCn3c(C)cc4c(OC)cccc43)ncn2)cc(Cl)c1C(=O)O` [compound 599], the concentration for half-maximal inhibition (IC50) at EP2 came out at 13 nM; against EP4 (setting [1]), 196 nM.

As to `COc1cc(F)cc2c1cc(C)n2CCNc1cc(-c2ccc(-c3ncccn3)cc2)ncn1` [Example 755, [2-(6-Fluoro-4-methoxy-2-methyl-indol-1-yl)-ethyl]-[6-(4-pyrimidin-2-yl-phenyl)-pyrimidin-4-yl]-amine], the IC50 on EP2 is 41 nM; against EP4 (setting [1]), 452 nM.

As to `CCOc1cc(-c2cc(NCCn3c(C)cc4c(OC)ccc(F)c43)ncn2)ccc1CNC1CCC1` [compound 597], the results for the IC50 against EP2 and at EP4 (setting [1]) were 175 nM and 719 nM, respectively.

As for `COc1cccc2c1cc(C)n2CCNc1cc(-c2ccc(C(=O)O)c(CC(C)C)c2)ncn1` [compound 428], the half-maximal inhibitory concentration (IC50) was found to be 11 nM against EP2 and 164 nM on EP4 (setting [1]).

In the case of `Cc1cc(F)cc2c1cc(C)n2CCNc1cc(-c2ccc(-c3cnc(N)o3)cc2)ncn1` [compound 552], the IC50 against EP2 is 26 nM; against EP4 (setting [1]), 118 nM.

On to `CCOc1cc(-c2cc(NCCn3c(C#N)cc4c(Cl)cc(F)c(F)c43)ncn2)sc1C(=O)O` [Example 941, 5-{6-[2-(4-Chloro-2-cyano-6,7-difluoro-indol-1-yl)-ethylamino]-pyrimidin-4-yl}-3-ethoxy-thiophene-2-carboxylic acid], for which the IC50 against EP2 was determined as 11 nM; against EP4 ((*): measured using the cAMP assay) it was 29 nM.

As for `COc1ccc(F)c2c1cc(C)n2CCNc1cc(-c2ccc(C3(C(=O)O)CC3)c(F)c2)ncn1` [compound 564], the IC50 against EP2 amounted to 75 nM; against EP4 (setting [1]), 317 nM.

For the compound `CCOc1cc(-c2cc(NCCn3c(C)cc4c(OC)ccc(Cl)c43)ncn2)cc(Cl)c1C(=O)O` [compound 488], the IC50 worked out at 70 nM against EP2 and 219 nM against EP4 (setting [1]).

`COc1ccc(Cl)c2c1cc(C)n2CCNc1cc(-c2ccc(C(=O)O)c(OCC(C)C)c2)ncn1` [compound 614]: the IC50 was determined as 12 nM against EP2 and 193 nM against EP4 (setting [1]).

For `CCCOc1cc(-c2cc(NCCn3c(C)cc4c(C)cc(Cl)cc43)ncn2)cc(Cl)c1C(=O)O` [compound 522], the IC50 against EP2 is 21 nM; against EP4 (setting [1]) it was 217 nM.

With `Cc1cc2c(F)c(F)cc(F)c2n1CCNc1cc(-c2ccc(-c3noc(=O)[nH]3)cc2)ncn1` [compound 682, 3-(4-{6-[2-(4,5,7-Trifluoro-2-methyl-indol-1-yl)-ethylamino]-pyrimidin-4-yl}-phenyl)-4H-[1,2,4]oxadiazol-5-one], the half-maximal inhibitory concentration (IC50) at EP2 is 12 nM; against EP4 (setting [1]), 251 nM.

Regarding `CCOc1cc(-c2cc(NCCn3c(C)cc4c(OC)ccc(F)c43)ncn2)cc(Cl)c1C(=O)O` [compound 489], the values for the IC50 against EP2 and against EP4 (setting [1]) were 25 nM and 103 nM, respectively.

With `Cc1cc(F)cc2c1cc(C)n2CCNc1cc(-c2ccc(-c3csc(C(=O)O)n3)cc2)ncn1` [compound 544], the IC50 at EP2 worked out at 47 nM; against EP4 (setting [1]) it was 178 nM.

For `Cc1ccc(F)c2c1cc(C)n2CCNc1cc(-c2ccc(-c3csc(CC(N)=O)n3)cc2)ncn1` [Example 784, 2-[4-(4-{6-[2-(7-Fluoro-2,4-dimethyl-indol-1-yl)-ethylamino]-pyrimidin-4-yl}-phenyl)-thiazol-2-yl]-acetamide], the IC50 was 63 nM at EP2 and 512 nM on EP4 (setting [1]).

Turning to `CCCc1cc(-c2cc(NCCn3c(C)cc4c(OC)cc(F)cc43)ncn2)cc(F)c1C(=O)O` [compound 521], the values for the IC50 on EP2 and on EP4 (setting [1]) were 17 nM and 64 nM, respectively.

For `CCCc1cc(-c2cc(NCCn3c(C)cc4c(OC(F)(F)F)ccc(F)c43)ncn2)ccc1C(=O)O` [compound 570], the results for the IC50 against EP2 and against EP4 (setting [1]) were 773 nM and 309 nM, respectively.

For `CCNc1cc(-c2cc(NCCn3c(C)cc4c5c(cc(Cl)c43)OCO5)ncn2)ccc1-c1nnn[nH]1` [compound 659, [2-(5-Chloro-7-methyl-[1,3]dioxolo[4,5-e]indol-6-yl)-ethyl]-{6-[3-ethylamino-4-(1H-tetrazol-5-yl)-phenyl]-pyrimidin-4-yl}-amine], the half-inhibitory concentration (IC50) was determined as 6 nM against EP2 and 54 nM against EP4 (setting [1]).

In the case of `CCOc1cc(-c2cc(NCCn3c(C)cc4c(C)ccc(F)c43)ncn2)cc(Cl)c1C(=O)O` [compound 433], the 50% inhibitory concentration (IC50) against EP2 amounted to 61 nM; against EP4 (setting [1]), 108 nM.

Take `COc1ccc(F)c2c1cc(C)n2CCNc1cc(-c2ccc(-c3csc(CC(N)=O)n3)cc2)ncn1` [Example 786, 2-[4-(4-{6-[2-(7-Fluoro-4-methoxy-2-methyl-indol-1-yl)-ethylamino]-pyrimidin-4-yl}-phenyl)-thiazol-2-yl]-acetamide]: the figures for the IC50 against EP2 and on EP4 (setting [1]) were 16 nM and 319 nM, respectively.

Take `Cc1cc(F)cc2c1cc(C)n2CCNc1cc(-c2ccc3ccncc3c2)ncn1` [compound 731]: the IC50 is 36 nM against EP2 and 276 nM against EP4 (setting [1]).

`COc1ccc(F)c2c1cc(C)n2CCNc1cc(-c2ccc(-c3csc(C(=O)O)n3)cc2)ncn1` [compound 476, 4-(4-{6-[2-(7-Fluoro-4-methoxy-2-methyl-indol-1-yl)-ethylamino]-pyrimidin-4-yl}-phenyl)-thiazole-2-carboxylic acid]: the half-maximal inhibitory concentration (IC50) on EP2 came to 18 nM; against EP4 (setting [1]), 48 nM.

For the compound `CCCOc1cc(-c2cc(NCCn3c(C)cc4c(OC)cc(F)c(F)c43)ncn2)cc(F)c1C(=O)O` [compound 637], the values for the half-maximal inhibitory concentration (IC50) against EP2 and against EP4 (setting [1]) were 25 nM and 54 nM, respectively.

With `COc1cc(F)c(F)c2c1cc(C)n2CCNc1cc(-c2ccc(-c3cnc(N)o3)cc2)ncn1` [compound 639], the IC50 against EP2 turned out to be 23 nM; against EP4 (setting [1]), 37 nM.

On to `CCOc1cc(-c2cc(NCCn3c(C)cc4c(OC)ccc(Cl)c43)ncn2)cc(CC)c1C(=O)O` [compound 617], for which the values for the IC50 on EP2 and against EP4 (setting [1]) were 60 nM and 952 nM, respectively.

Regarding `CCCOc1cc(-c2cc(NCCn3c(C)cc4c(OC)cc(F)cc43)ncn2)cc(F)c1C(=O)O` [compound 608], the IC50 is 24 nM at EP2 and 126 nM on EP4 (setting [1]).

On to `COc1cc(-c2cc(NCCn3c(C)cc4c(F)ccc(F)c43)ncn2)ccc1-c1nnn[nH]1` [Example 747, [2-(4,7-Difluoro-2-methyl-indol-1-yl)-ethyl]-{6-[3-methoxy-4-(1H-tetrazol-5-yl)-phenyl]-pyrimidin-4-yl}-amine], for which the IC50 at EP2 is 3 nM; against EP4 (setting [1]), 318 nM.

`COc1ccc(F)c2c1cc(C)n2CCNc1cc(-c2ccc3[nH]ccc3c2)ncn1` [compound 700, [2-(7-Fluoro-4-methoxy-2-methyl-indol-1-yl)-ethyl]-[6-(1H-indol-5-yl)-pyrimidin-4-yl]-amine]: the IC50 was 7 nM against EP2 and 44 nM against EP4 (setting [1]).

Take `CCOc1cc(-c2cc(NCCn3c(C)cc4c(OC)cc(F)cc43)nc(C)n2)ccc1C(=O)O` [compound 492]: the IC50 at EP2 came to 63 nM; at EP4 (setting [1]), 626 nM.

In the case of `COc1ccc(F)c2c1cc(C)n2CCNc1cc(-c2ccc(-c3nnc(C)o3)cc2)ncn1` [compound 574], the results for the IC50 at EP2 and against EP4 (setting [1]) were 33 nM and 208 nM, respectively.

As for `Cc1c(F)cc(Cl)c2c1cc(C)n2CCNc1cc(-c2ccc(C(=O)O)c(SC(C)C)c2)ncn1` [compound 504], the IC50 was determined as 103 nM against EP2 and 535 nM against EP4 (setting [1]).

As to `COc1cc(F)cc2c1cc(C)n2CCNc1cc(-c2ccc(-c3nc(C(=O)O)cs3)cc2)ncn1` [compound 579], the results for the IC50 on EP2 and against EP4 (setting [1]) were 11 nM and 41 nM, respectively.

Turning to `CCCc1cc(-c2cc(NCCn3c(C)cc4c(OC)ccc(F)c43)ncn2)cc(OC)c1C(=O)O` [compound 619], the figures for the half-maximal inhibitory concentration (IC50) against EP2 and on EP4 (setting [1]) were 9 nM and 249 nM, respectively.

For the compound `CCOc1cc(-c2cc(NCCn3c(C)cc4c(OC)ccc(F)c43)ncn2)cc(F)c1C(=O)O` [compound 490], the values for the IC50 on EP2 and against EP4 (setting [1]) were 17 nM and 165 nM, respectively.

As for `COc1cc(F)cc2c1cc(C)n2CCNc1cc(-c2ccc(-c3cnccn3)cc2)ncn1` [Example 750, [2-(6-Fluoro-4-methoxy-2-methyl-indol-1-yl)-ethyl]-[6-(4-pyrazin-2-yl-phenyl)-pyrimidin-4-yl]-amine], the IC50 against EP2 is 16 nM; against EP4 (setting [1]), 91 nM.

With `CCCc1cc(-c2cc(NCCn3c(C)cc4c(OC)ccc(F)c43)ncn2)cc(Cl)c1C(=O)O` [compound 514], the IC50 was determined as 5 nM at EP2 and 56 nM against EP4 (setting [1]).

As for `CNS(=O)(=O)c1ccc(-c2cc(NCCn3c(C)cc4c(C)ccc(F)c43)ncn2)cc1C(F)(F)F` [compound 563], the half-maximal inhibitory concentration (IC50) against EP2 worked out at 111 nM; at EP4 (setting [1]), 601 nM.

As for `Cc1ccc(F)c2c1cc(C)n2CCNc1cc(-c2ccc(C(=O)O)c(N3CCCC3)c2)ncn1` [compound 464, 4-{6-[2-(7-Fluoro-2,4-dimethyl-indol-1-yl)-ethylamino]-pyrimidin-4-yl}-2-pyrrolidin-1-yl-benzoic acid], the IC50 against EP2 stood at 15 nM; on EP4 (setting [1]) it was 459 nM.

For the compound `CCNC(=O)Nc1ccc(-c2cc(NCCn3c(C)cc4c(OC)ccc(F)c43)ncn2)cc1OC` [compound 555, 1-Ethyl-3-(4-{6-[2-(7-fluoro-4-methoxy-2-methyl-indol-1-yl)-ethylamino]-pyrimidin-4-yl}-2-methoxy-phenyl)-urea], the IC50 turned out to be 23 nM at EP2 and 28 nM against EP4 (setting [1]).

The IC50 is the point on the concentration scale where inhibition reaches its midpoint. Read a high IC50 as weaker potency in that assay.
